These results are taken from patent US11591326B2, “Inhibitors of protein arginine methyltransferase 5 (PRMT5), pharmaceutical products thereof, and methods thereof” (PHARMABLOCK SCIENCES (NANJING), INC., priority 2018, dated 2023).

Data set [1] deals with Mantle Cell Lymphoma Z-138 cell. Briefly: Cell proliferation inhibition, Z-138 (CCK8). Format: cell-based. Particulars: Homo sapiens, Z-138, 96 h, Z-138, incubated 4 days. From the text: Materials and Cell Lines: Z-138, U251, and MIA PaCa2 cells were purchased from ATCC (American Type Culture Collection, Manassas, Va.) and Chinese Academy of Science (Shanghai, China). Iscove's Modified Dulbecco's Medium (IMDM), Dulbecco's Modified Eagle Medium (DMEM), penicillin-streptomycin, heat inactivated fetal bovine serum (FBS), and horse serum was purchased from ThermoFisher, Waltham, Mass., USA. Corning 96- and 384-well cell culture plates were purchased from ThermoFisher, Waltham, Mass., USA. Cell-Titer Glo® was purchased from Promega Corporation, Madison, Wis., USA.
In order to evaluate the inhibitory ability of compounds synthesized on the proliferation of the Mantle Cell Lymphoma Z-138 cell, exponentially growing cells were seeded in the media of IMDM with 10% horse serum and 1% penicillin-streptomycin at a concentration of 30000 cells/ml in a 96-well plate with 100 ul per well and incubated overnight at 37° C., 5% CO2 incubator. Compounds were prepared as 10-point, 3-fold serial dilutions in DMSO, beginning at 6 mM. 1 μl of DMSO solutions from the compound stock plates were added to 99 ul of cell culture media (final top concentration of compound in the assay was 30 uM and the final concentration of DMSO was 0.5%). 100 μL of compound solutions in media were added to each well of Z-138 cell plates. After adding compound solutions, assay plates were incubated for 4 days at 37° C., 5% CO2. Cell viability was measured using the Cell Counting Kit-8 (CCK8) obtained from the Beyotime Biotehnology, Shanghai, China. 20 ul of CCK8 reagent was added to each well of the Z-138 assay plate which was incubated at 37° C. for 2 hours. O.D. at 450 nm was read with the FlexStation 3 microplate reader (Molecular Devices, Sunnyvale, Calif. 94089 USA). The concentrations of compounds inhibiting cell viability by 50% (IC50 values) were determined using a sigmoidal dose-response model (variable slopes, four parameters) in Prism 7 (La Jolla, Calif.).

In the next data set the test system is Huh1. Briefly: Liver cancer panel proliferation inhibition, Huh1. Format: cell-based. Particulars: Homo sapiens. The method, then: (§1) Inhibitory ability of compounds synthesized on the proliferation of three panels of cancer cell lines, including 5 breast cancer, 6 liver cancer, and 3 lung cancer cell lines were evaluated. Exponentially growing cells were seeded in the media of choice at various cell densities in 384-well plates with 20 ul per well and incubated overnight at 37° C., 5% CO2 incubator. Compounds were prepared as 10-point, 3-fold serial dilutions in DMSO, beginning at 6 mM. 1 μl of DMSO solutions from the compound stock plates were added to 99 ul of cell media (final top concentration of compound in the assay was 30 uM and the final concentration of DMSO was 0.5%). 20 μL of compound solutions in media were added to each well of plates with cells seeded. After adding compound solutions, assay plates were incubated for 8 and 12 days, respectively, at 37° C., 5% CO2. During this incubation period, cell media was changed every 4 days. After removing old media from cell plates, 40 ul of media with testing compounds dissolved, which were prepared by adding 1 ul of compound DMSO serial solutions to 199 ul of cell media, were added to the assay plates with the same layout as they were initially prepared. After 8 or 12 days, cell viability was measured using the CellTiter-Glo assay kit from Promega (Madison, Wis., USA) by quantitating the ATP present in the cell cultures. 20 μL of CellTiter-Glo reagent was added to each well of the cell plates. Luminescence was read after 10 minute of incubation with the Envision multiple plate reader from PerkinElmer (Waltham, Mass., USA). The concentrations of compounds inhibiting cell viability by 50% (IC50 values) were determined using a sigmoidal dose-response model (variable slopes, four parameters) in Prism 7 (La Jolla, Calif., USA).

The subject of a further data set is BT474. Briefly: Breast cancer panel proliferation inhibition, BT474. Format: cell-based. Particulars: Homo sapiens. The method, then:
as §1

The test system of another data set is MDA-MB-231. Nature of the data set: Breast cancer panel proliferation inhibition, MDA-MB-231. Format: cell-based. Particulars: Homo sapiens. The method, then:
as §1

The next data set has as its system SNU398. Briefly: Liver cancer panel proliferation inhibition, SNU398. Format: cell-based. Particulars: Homo sapiens. The method, then: as §1
The nature of data set [2]: Pharmacokinetic study in mouse. Format: in vivo, Male CD-1 mice. Particulars: male, CD-1, plasma; for plasma clearance / Vd: 2 mg/kg, Mouse PK (IV) 2 mpk; for plasma clearance: read-out: Clint (converted); for Vd: read-out: Vss; for AUC(0-t) / Cmax / Tmax / bioavailability / half-life: 10 mg/kg, Mouse PK (PO) 10 mpk; for half-life: read-out: T½ (converted). As for the experimental part:
Male CD-1 mice (16-24 g; 6-8 weeks; purchased from Shanghai SLAC laboratory animal CO. LTD; n=18, with 3 per time point) were treated with a single dose of compounds being tested at 2 mg/kg by intravenous tail-vein injection and 10 mg/kg by oral gavage administration, with both doses formulated in 20% N,N-dimethylacetamide in water. Animals upon PO administration were fasted overnight and fed 4 hours after dosing. Animals upon IV administration were free access to food and water. The study was performed in accordance with the guidelines and standards of the Association for Assessment and Accreditation of Laboratory Animal Care (AAALAC International) and the National Institutes of Health.
The animals were anesthetized via isoflurane at the designated time points, and approximately 110 μL of blood sample was collected via retro-orbital puncture or cardiac puncture for stagger bleeding under the anesthesia with Isoflurane inhalation into EDTA-2K tubes. The blood samples were maintained in wet ice first and centrifuged to obtain plasma (2000 g, 4° C., 5 min) within 15 minutes post sampling. Plasma samples were stored at approximately −70° C. until analysis. For plasma samples not diluted, an aliquot of 20 μL sample was added with 200 μL IS (Propranolol, 100 ng/mL) in ACN. The mixture was vortexed for 10 min and centrifuged at 5800 rpm for 10 min. An aliquot of 0.5 μL supernatant was injected for LC-MS/MS analysis. For 10-fold diluted plasma samples, an aliquot of 2 μL sample was added with 18 μL blank diluted plasma, the dilution factor was 10. The followed operation was the same as no diluted plasma samples. Standard calibration curves were constructed by analyzing a series of control plasma aliquots containing Propranolol (100 ng/mL) as an internal standard and 1.0-3,000 ng/mL testing compounds. Compound concentrations were determine with UPLC-MS/MS-33 (Triple Quad™ 6500 Plus).

[3] abbreviates: HuH-1, 192 h, Huh1, 8 days, read-out: IC50 (μM) 8 days.
Where [4] appears, read: HuH-1, 288 h, Huh1, 12 days, read-out: IC50 (μM) 12 days.
Where [5] appears, read: BT-474, 192 h, BT474, 8 days, read-out: IC50 (μM) 8 days.
The mark [6] stands for this setting: BT-474, 288 h, BT474, 12 days, read-out: IC50 (μM) 12 days.
Setting [7] is: 192 h, MDA-MB-231, 8 days, read-out: IC50 (μM) 8 days.
[8] abbreviates: 288 h, MDA-MB-231, 12 days, read-out: IC50 (μM) 12 days.
Where [9] appears, read: SNU-398, 192 h, SNU398, 8 days, read-out: IC50 (μM) 8 days.
Setting [10] is: SNU-398, 288 h, SNU398, 12 days, read-out: IC50 (μM) 12 days.

Like-named read-outs stand apart in the source and are kept apart here.

Turning to `CC(=O)N1CCC(Nc2ccc3c(c2)C(=O)N(C[C@H](O)CN2CCc4ccccc4C2)CC3)CC1` [Compound 24a, (R)-7-((1-acetylpiperidin-4-yl)amino)-2-(3-(3,4-dihydroisoquinolin-2(1H)-yl)-2-hydroxypropyl)-3,4-dihydroisoquinolin-1(2H)-one], the half-maximal inhibitory concentration (IC50) in data set [1] was found to be 0.014 µM; in the data set on Huh1 (setting [3]), 0.44 µM; in the data set on Huh1 (setting [4]) it was 0.041 µM; in the data set on BT474 (setting [5]), 0.11 µM; in the data set with BT474 (setting [6]) it was 0.057 µM; with MDA-MB-231 (setting [7]), 0.49 µM. For the same compound, the IC50 with MDA-MB-231 (setting [8]) was 0.075 µM; in the data set with SNU398 (setting [9]) it was 0.54 µM; with SNU398 (setting [10]), 0.25 µM. Besides, in data set [2], the plasma clearance is 35.7 mL/min/kg. Moreover, the Vd in data set [2] came to 2.48 L/kg. For the same compound, in data set [2], the AUC(0-t) was 3410 ng·h/mL. The same compound returned a maximum concentration (Cmax) in data set [2] of 3580 ng/mL. In addition, in data set [2], the Tmax is 0.25 h. The same compound displayed a bioavailability in data set [2] of 73.3%. Moreover, the half-life in data set [2] is 1.22 h.
As to `CC(=O)N1CCC(Nc2ccc3c(c2)C(=O)N(C[C@H](O)CN2CCc4ccccc4C2)CCO3)CC1` [Compound 52a, (R)-7-((1-acetylpiperidin-4-yl)amino)-4-(3-(3,4-dihydroisoquinolin-2(1H)-yl)-2-hydroxypropyl)-3,4-dihydrobenzo[f][1,4]oxazepin-5(2H)-one], the IC50 in data set [1] turned out to be 0.014 µM; in the data set with Huh1 (setting [3]), 0.54 µM; with Huh1 (setting [4]), 0.075 µM; in the data set with BT474 (setting [5]), 0.041 µM; in the data set on BT474 (setting [6]) it was 0.03 µM; with MDA-MB-231 (setting [7]), 0.17 µM. Also, the values for the half-maximal inhibitory concentration (IC50) in the data set with MDA-MB-231 (setting [8]), in the data set on SNU398 (setting [9]) and with SNU398 (setting [10]) were 0.064 µM, 0.45 µM and 0.12 µM, respectively. Further, the plasma clearance in data set [2] is 50.7 mL/min/kg. The Vd in data set [2] was determined as 2.25 L/kg. The same compound had an AUC(0-t) in data set [2] of 2720 ng·h/mL. Further, in data set [2], the Cmax amounted to 3080 ng/mL. The time of peak concentration (Tmax) in data set [2] stood at 0.25 h. This compound also registered a bioavailability in data set [2] of 83%. Moreover, the half-life in data set [2] was 2.86 h.
On to `CC(=O)N1CCC(Nc2cc(C(=O)NC[C@H](O)CN3CCc4ccccc4C3)ncn2)CC1` [Compound C3, reference compound], for which the IC50 in data set [1] was 0.07 µM; in the data set on Huh1 (setting [3]) it was 1.92 µM; with Huh1 (setting [4]), 0.085 µM; in the data set on BT474 (setting [5]) it was 0.14 µM; in the data set with BT474 (setting [6]), 0.056 µM; with MDA-MB-231 (setting [7]), 0.7 µM. The values for the IC50 in the data set on MDA-MB-231 (setting [8]), with SNU398 (setting [9]) and with SNU398 (setting [10]) were 0.096 µM, 0.83 µM and 0.41 µM, respectively. Further, the plasma clearance in data set [2] was 44.7 mL/min/kg. The Vd in data set [2] was 1.48 L/kg. This compound yielded an area under the curve AUC(0-t) in data set [2] of 2420 ng·h/mL. Further, the Cmax in data set [2] came out at 761 ng/mL. Moreover, the time of peak concentration (Tmax) in data set [2] is 2 h. In addition, in data set [2], the bioavailability amounted to 64.9%. Also, in data set [2], the half-life is 0.798 h.

What is called IC50 is the concentration that gives 50% inhibition. A word on the AUC(0-t): it is the area under the concentration-time curve up to a stated or last time point. A word on the Cmax: it is the highest concentration seen after dosing. Broadly, the Tmax is the time at which the peak concentration occurs. As usually defined, the bioavailability is the share of a dose that reaches the circulation, judged against a reference dose that is usually intravenous. Low readings indicate little systemic uptake, high ones much systemic uptake.
